The values that follow come from patent US4988681A, “Phosphinic acid derivatives” (Banyu Pharmaceutical Co., Ltd., priority 1988, dated 1991).

The test system of data set [1] is nephrotoxicity induced by imipenem. Description: Protective action on nephrotoxicity induced by imipenem in rabbits. As to conditions: imipenem 150 mg/kg alone. The format is in vivo, male Japanese white rabbits. On the procedure:
(3) Protective action on nephrotoxicity induced by carbapenem antibiotics
Twelve male Japanese white rabbits (18 week-old; body weight 3.19-3.54 kg) were divided into three groups each consisting of 4 animals. Imipenem alone was administered in a dose of 150 mg/kg to a first group. To a second group, a combination of imipenem (150 mg/kg) and the compound No. 2 (150 mg/kg) was administered. To a third group as a control, sterilized physiological saline was administered. In all cases, the administration was effected through the auricular vein. Forty-eight hours later, a blood sample was taken from each of the animals, and the BUN and creatinine values were measured. The kidneys of the rabbits were taken and examined histopathologically.

Data set [2] in a line: Effect on urinary recovery of carbapenem (imipenem) in rats. In kind it is in vivo, Male SD rats. As to conditions: imipenem 10 mg/kg iv alone, no inhibitor, urine up to 8 hours, n = 3. The protocol: (2) Effect on urinary recovery of carbapenem
Male SD rats (8 week-old) were grouped, three per group. Imipenem alone was intravenously administered in a dose of 10 mg/kg to a first group. […] For comparison, a combination of imipenem (10 mg/kg) and cilastatin (10 mg/kg) was intravenously administered to a fourth group.
The urinary recovery of imipenem was calculated.

Data set [3] can be described thus: Pharmacokinetic evaluation: plasma concentration in rats. As to conditions: for AUC / concentration at 0.5 h / concentration at 0.25 h / concentration at 5 min / concentration at 1 h / concentration at 2 h / concentration at 4 h / concentration at 6 h / concentration at 8 h / concentration at 24 h: plasma, rat; for AUC: trapezoidal rule; for concentration at 0.5 h: 1/2 h; for concentration at 0.25 h: 1/4 h; for concentration at 5 min: 1/12 h. The format is in vivo, Male SD rats. The protocol: (4) Pharmacokinetic evaluations
Male SD rats ([…]) were divided into groups each consisting of three animals. […] Furthermore, cilastatin was intravenously administered to a 14th group as a control group.
Plasma samples were taken periodically from the carotid artery through a cannula inserted into it at the points of 1/12, 1/4, 1/2, 1, 2, 4, 6, 8 and 24 hours after the administration.
The area under the curve (AUC) of the plasma concentration was determined according to the trapezoidal rule.

Data set [4] has as its target T1, porcine kidney dehydropeptidase I (Sus scrofa, UniProt P22412).
T1 construct: Frozen porcine kidney cortex was homogenized; from tissue; host or cells: porcine kidney cortex
T1 sequence (P22412 17-409): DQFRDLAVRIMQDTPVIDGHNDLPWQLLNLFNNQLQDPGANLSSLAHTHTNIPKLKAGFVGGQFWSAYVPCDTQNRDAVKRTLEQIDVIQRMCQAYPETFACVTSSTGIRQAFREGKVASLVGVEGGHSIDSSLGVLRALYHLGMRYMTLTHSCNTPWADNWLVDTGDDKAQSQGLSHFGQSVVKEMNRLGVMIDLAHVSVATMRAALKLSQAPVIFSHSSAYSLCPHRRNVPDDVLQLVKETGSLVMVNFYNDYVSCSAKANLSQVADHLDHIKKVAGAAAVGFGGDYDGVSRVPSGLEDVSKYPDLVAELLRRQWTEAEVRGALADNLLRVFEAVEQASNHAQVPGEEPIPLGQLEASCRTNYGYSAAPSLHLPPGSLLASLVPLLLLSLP
Description: Inhibitory activity on porcine kidney dehydropeptidase I (DHP-I). In kind it is biochemical. The settings on record: substrate glycyldehydrophenylalanine, pH 7.4, 37° C., 3 h pre-incubation; read-out: Concentration producing 50% inhibition (IC50). The protocol: (1) Inhibitory activity on porcine kidney dehydropeptidase I
(i) Purification of porcine dehydropeptidase I
Frozen porcine kidney cortex was homogenized. Butanol (1/4 volume) pre-cooled in a dry ice-acetone bath was added to the homogenate, and the mixture was stirred at 4° C. for 43 hours. The mixture was then dialyzed for one day and centrifuged at 3,000 g for 30 minutes. To the resulting supernatant was added ammonium sulfate. A precipitate at the salt concentration range between 50 and 75% was collected to give a crude enzyme preparation which was re-dissolved in a 50 mM MOPS buffer containing 0.5 M NaCl. The solution was charged on a cilastatin affinity column. Elution with a 50 mM MOPS buffer containing 0.5 M NaCN gave a purified enzyme preparation.
(ii) Measurement of inhibitory activity
The resulting enzyme preparation (3 mU) and an inhibitor were pre-incubatedat 37° C. for 3 hours in 2.7 ml of a 50 mM MOPS buffer (pH 7.4), and then 2.475 ml of the mixture was transferred into a cuvette. As a substrate, 25 microliters of a 5 mM glycyldehydrophenylalanine solution in a 50 mM MOPS buffer (pH 7.4) was added to start an enzymic reaction. The reaction was carried out at 37° C. in a spectrophotometer fitted with a constant-emperature device, and a decrease of the absorbance at 275 nm during a period of 5 minutes was measured. […] An IC50 value was calculated from the percent inhibition data.
One unit (U) is defined as the amount of the enzyme which hydrolyzes 1 micromole of the substrate (glycyldehydrophenylalanine) per minute at a substrate concentration of 0.05 mM at 37° C. in a 50 mM MOPS buffer (pH 7.4).

[5] abbreviates: iv 10 mg/kg (cilastatin dose not given).
Where [6] appears, read: iv 10 mg/kg (cilastatin dose not given), N.D.: below the detection limit.
[7] abbreviates: iv 10 mg/kg, N.D.: below the detection limit.
[8] abbreviates: po 10 mg/kg, N.D.: below the detection limit.
The mark [9] stands for this setting: ester po, 10 mg/kg equivalent to compound No. 2, calculated as free acid (No. 2).

Turning to `C[C@@H](O)[C@H]1C(=O)N2C(C(=O)O)=C(SCCN=CN)C[C@H]12` [Imipenem, reference compound], in data set [1], the “Necrosis of the kidney tissue, number of rabbits which necrotized versus number tested” value is 4/4. For the same molecule, the BUN in data set [1] (auricular vein, 48 hours, * P ≤ 0.05) amounted to 70.8 mg/100 ml. Besides, the “Necrosis of the kidney tissue” value in data set [1] (grade in words) is “Marked”. Also, the “Urinary recovery of imipenem, Mean ± S.D.” value in data set [2] amounted to 29.6 ± 4.8%.

In data set [3] (setting [5]), `O=C(O)/C(=C/C1CCCCC1)CP(=O)(O)CC1CCCCC1` [Compound No. 28, (Z)-3-cyclohexyl-2-(cyclohexylmethylhydroxyphosphinoyl)methylpropenoic acid] showed an exposure (AUC) of 82400 ng·h/mL, a concentration at 0.5 h of 30400 ng/mL, a concentration at 0.25 h of 40600 ng/mL and a concentration at 5 min of 58100 ng/mL. In data set [3] (po 10 mg/kg), this molecule gave an AUC of 19000 ng·h/mL, a concentration at 0.5 h of 3400 ng/mL, a concentration at 0.25 h of 3100 ng/mL and a concentration at 5 min of 1300 ng/mL. Besides, in data set [3] (po 10 mg/kg), the concentration at 1 h worked out at 2500 ng/mL, the concentration at 2 h came to 3000 ng/mL, the concentration at 4 h came out at 1900 ng/mL and the concentration at 6 h is 1100 ng/mL. Besides, in data set [3] (setting [6]), the concentration at 1 h was found to be 18300 ng/mL. In data set [3] (iv 10 mg/kg), the concentration at 2 h amounted to 11700 ng/mL, the concentration at 4 h is 4800 ng/mL and the concentration at 8 h was 1000 ng/mL. Further, in data set [3] (setting [7]), the concentration at 6 h was 2300 ng/mL and the concentration at 24 h was 100 ng/mL. In data set [3] (setting [8]), this molecule gave a concentration at 8 h of 500 ng/mL. The IC50 in data set [4] was determined as 0.05 µM.

Consider `Cc1oc(=O)oc1COC(=O)/C(=C/C1CCCCC1)CP(=O)(O)CC(C)C` [Compound No. 27, (5-methyl-2-oxo-1,3-dioxol-4-yl)methyl (Z)-3-cyclohexyl-2-(hydroxyisobutylphosphinoyl)methylpropenoate], for which, in data set [3] (setting [9]), the AUC is 56900 ng·h/mL, the concentration at 0.5 h is 13300 ng/mL, the concentration at 0.25 h was 10100 ng/mL and the concentration at 5 min is 1500 ng/mL. Further, in data set [3] (setting [9]), the concentration at 1 h is 11500 ng/mL, the concentration at 2 h is 9300 ng/mL, the concentration at 4 h was 4600 ng/mL and the concentration at 6 h was 2600 ng/mL. Moreover, the concentration at 8 h in data set [3] (setting [9]) was 1400 ng/mL. Also, the Oral absorbability result in data set [3] (rats, in words) is reported as “better oral absorbability than the compound No. 2”. Further, the IC50 in data set [4] was 150 µM.

In data set [3] (setting [5]), `CC(C)CP(=O)(O)C/C(=C\CCCSC[C@H](N)C(=O)O)C(=O)O` [Compound No. 23, (Z)-6-[(L)-2-amino-2-carboxyethyl]thio-2-(hydroxyisobutylphosphinoyl)methyl-2-hexenoic acid] had an AUC of 17900 ng·h/mL, a concentration at 0.5 h of 13900 ng/mL, a concentration at 0.25 h of 21000 ng/mL and a concentration at 5 min of 28700 ng/mL. The concentration at 1 h in data set [3] (setting [6]) is 4200 ng/mL. Besides, in data set [3] (iv 10 mg/kg), the concentration at 2 h was 900 ng/mL and the concentration at 4 h was determined as 100 ng/mL. The IC50 in data set [4] came to 0.048 µM.

In data set [3] (setting [5]), `CC1(C)CC1P(=O)(O)C/C(=C\C1CCCCC1)C(=O)O` (centres unmarked) [Compound No. 5, (Z)-3-cyclohexyl-2-(2,2-dimethylcyclopropylhydroxyphosphinoyl)methylpropenoic acid] showed an exposure (AUC) of 88200 ng·h/mL, a concentration at 0.5 h of 36200 ng/mL, a concentration at 0.25 h of 49400 ng/mL and a concentration at 5 min of 51900 ng/mL. In addition, in data set [3] (po 10 mg/kg), the area under the curve (AUC) stood at 22500 ng·h/mL, the concentration at 0.5 h came out at 6400 ng/mL, the concentration at 0.25 h turned out to be 4700 ng/mL and the concentration at 5 min was 2500 ng/mL. In data set [3] (po 10 mg/kg), this molecule yielded a concentration at 1 h of 5300 ng/mL, a concentration at 2 h of 3400 ng/mL, a concentration at 4 h of 2400 ng/mL and a concentration at 6 h of 1100 ng/mL. Further, the concentration at 1 h in data set [3] (setting [6]) is 24400 ng/mL. In data set [3] (iv 10 mg/kg), this molecule registered a concentration at 2 h of 11900 ng/mL, a concentration at 4 h of 4700 ng/mL and a concentration at 8 h of 900 ng/mL. For the same molecule, in data set [3] (setting [7]), the concentration at 6 h stood at 1700 ng/mL and the concentration at 24 h stood at 100 ng/mL. In data set [3] (setting [8]), this molecule showed a concentration at 8 h of 300 ng/mL. The IC50 in data set [4] is 0.0082 µM.

In data set [3] (setting [5]), `O=C(O)/C(=C/C1CCCCC1)CP(=O)(O)CC1CCCC1` [Compound No. 17, (Z)-3-cyclohexyl-2-(cyclopentylmethylhydroxyphosphinoyl)methylpropenoic acid] came in with an AUC of 226000 ng·h/mL, a concentration at 0.5 h of 55000 ng/mL, a concentration at 0.25 h of 74700 ng/mL and a concentration at 5 min of 86700 ng/mL. In data set [3] (po 10 mg/kg), this molecule gave an exposure (AUC) of 18400 ng·h/mL, a concentration at 0.5 h of 5000 ng/mL, a concentration at 0.25 h of 4100 ng/mL and a concentration at 5 min of 500 ng/mL. In data set [3] (po 10 mg/kg), this molecule showed a concentration at 1 h of 5000 ng/mL, a concentration at 2 h of 3200 ng/mL, a concentration at 4 h of 2100 ng/mL and a concentration at 6 h of 1000 ng/mL. This molecule also returned a concentration at 1 h in data set [3] (setting [6]) of 38000 ng/mL. In addition, in data set [3] (iv 10 mg/kg), the concentration at 2 h turned out to be 25200 ng/mL, the concentration at 4 h came out at 14800 ng/mL and the concentration at 8 h stood at 6400 ng/mL. Besides, in data set [3] (setting [7]), the concentration at 6 h was 10800 ng/mL and the concentration at 24 h is 500 ng/mL. Moreover, the concentration at 8 h in data set [3] (setting [8]) came to 100 ng/mL. The IC50 in data set [4] stood at 0.018 µM.
